We go through two compounds from US11701347B2, “Use of 5-fluoro-4-(4-fluoro-2-methoxyphenyl)-N-{4-[(S-methylsulfonimidoyl)methyl]pyridin-2-yl}pyridin-2-amine for treating diffuse large B-cell lymphoma” (Bayer Aktiengesellschaft, priority 2018, dated 2023).

One data set concerns DB. Put plainly: Cell proliferation assay (CellTiter Glo, 72 h). The following applies: Homo sapiens, DLBCL GCB subtype. Type of data set: cell-based. As for the experimental part: (§1) The proliferation of all (DLCBL) cell lines in the presence of different concentrations of Compound A′ or FR compound for 72 h was assessed using CellTiter Glo kits (Promega Corporation, Madison, Wis.). All expressed values were averages of triplicate experiments, and IC50 was calculated using GraphPad Prism 5 (GraphPad Software, San Diego, Calif.) according to the manufacturer's instructions or the MTS software.
(In general: Cellular ATP, detected with luciferase, serves as a proxy for viable cell number.)

The next data set has as its system HBL1. The data set is described as follows: Cell proliferation assay (CellTiter Glo, 72 h). It is filed as cell-based. The following applies: HBL1, DLBCL ABC subtype. As for the experimental part:
as §1

Another data set concerns HT. Put plainly: Cell proliferation assay (CellTiter Glo, 72 h). It is filed as cell-based. The following applies: Homo sapiens, DLBCL GCB subtype. As for the experimental part: as §1
The next data set concerns OCI-LY-19. The data set is described as follows: Cell proliferation assay (CellTiter Glo, 72 h). It is filed as cell-based. Conditions: Homo sapiens, OCI-LY19, OCI-LY-19, DLBCL GCB subtype. As for the experimental part:
as §1

Another data set deals with OCI-LY-3. The data set is described as follows: Cell proliferation assay (CellTiter Glo, 72 h). It is filed as cell-based. The following applies: Homo sapiens, OCI-Ly3, OCI-LY-3, DLBCL ABC subtype. How it is done: as §1
Another data set concerns SU-DHL-10. Put plainly: Cell proliferation assay (CellTiter Glo, 72 h). The following applies: Homo sapiens, SU-DHL10, SU-DHL-10, DLBCL GCB subtype. It is filed as cell-based. As for the experimental part:
as §1

Another data set relates to SU-DHL-4. The data set is described as follows: Cell proliferation assay (CellTiter Glo, 72 h). It is filed as cell-based. The following applies: Homo sapiens, SU-DHL-4, DLBCL GCB subtype. How it is done: as §1
Another data set has as its system SU-DHL-6. Put plainly: Cell proliferation assay (CellTiter Glo, 72 h). It is filed as cell-based. The following applies: Homo sapiens, SU-DHL-6, DLBCL GCB subtype. As for the experimental part:
as §1

The test system of a further data set is SU-DHL-8. Put plainly: Cell proliferation assay (CellTiter Glo, 72 h). It is filed as cell-based. The following applies: Homo sapiens, SU-DHL-8, DLBCL GCB subtype. As for the experimental part: as §1
In another data set the test system is SU-DHL-5. Put plainly: Cell proliferation assay (CellTiter Glo, 72 h). It is filed as cell-based. The following applies: Homo sapiens, SU-DHL-5, DLBCL GCB subtype. How it is done:
as §1

The next data set concerns TMD8. Put plainly: Cell proliferation assay (CellTiter Glo, 72 h). It is filed as cell-based. The following applies: Homo sapiens, TMD8, DLBCL ABC subtype. As for the experimental part:
as §1

Data set [1] deals with subcutaneous DLBCL OCI-LY-3 xenografts. Put plainly: In vivo efficacy in DLBCL OCI-LY-3 xenograft model. Set-up: species or system female SCID mice. The following applies: 10 mg/kg q7d iv, 14 days, end of experiment. As for the experimental part:
(§2) The aim of the present experiments was to assess the in vivo efficacy and tolerability of Compound A′ in monotherapy in the DLBCL OCI-LY-3 tumour model subcutaneously implanted in SCID mice. In vivo efficacy was determined in female SCID mice bearing subcutaneous DLBCL OCI-LY-3 xenografts. Compound A′ was assessed at one dose level in monotherapy. Anti-tumour activity and tolerability of the treated group was assessed using the vehicle control group as a reference.
(§3) At randomisation, the area of growing tumours was initially determined Animals bearing one tumour of an area of 25-35 mm2 were distributed in experimental groups according to the study protocol. The day of randomisation is designated as day 0 of an experiment Animals either received Compound A′ (formulated in 30% PEG400/10% Ethanol/60%water), at a dose of 10 mg/kg q7d intravenously or vehicle control (qd po) for a period of 14 days.
At the end of the experiment Treatment to Control ratios (T/C) were calculated based on the mean tumor area and the mean tumor weight in the Compound A′ treatment group and in the vehicle control group.

Data set [2] concerns subcutaneous DLBCL SU-DHL-10 xenografts. The data set is described as follows: In vivo efficacy in DLBCL SU-DHL-10 xenograft model. Also noted: species or system female SCID mice. The following applies: 15 mg/kg q7d iv, 16 days, end of experiment. As for the experimental part: (§4) The aim of the present experiments was to assess the in vivo efficacy and tolerability of Compound A′ in monotherapy in the DLBCL SU-DHL-10 tumour model subcutaneously implanted in SCID mice. In vivo efficacy was determined in female SCID mice bearing subcutaneous DLBCL SU-DHL-10 xenografts. Compound A′ was assessed at one dose level in monotherapy. Anti-tumour activity and tolerability of the treated group was assessed using the vehicle control group as a reference. […] At randomisation, the area of growing tumours was initially determined Animals bearing one tumour of an area of 25-35 mm2 were distributed in experimental groups according to the study protocol. The day of randomisation is designated as day 0 of an experiment Animals either received Compound A′ (formulated in 30% PEG400/10% Ethanol/60%water), at a dose of 15 mg/kg q7d intravenously or vehicle control (q7d iv) for a period of 16 days.
(§5) The maximum body weight loss was −9% in Compound A′ group compared to −4% in the vehicle group indicating moderate tolerability of Compound A′ at a dose of 15 mg/kg q7d iv. At the end of the experiment the Treatment to Control ratios (T/C) was calculated based on the mean tumor area in the Compound A′ treatment group and in the vehicle control group.

A short description of data set [3]: Tolerability in OCI-LY-3 xenograft study. Type of data set: in vivo. Conditions: 10 mg/kg q7d iv, 14 days. As for the experimental part: as §2, §3
Data set [4] is described as follows: Tolerability in SU-DHL-10 xenograft study. The following applies: 15 mg/kg q7d iv, 16 days. Type of data set: in vivo, female SCID mice. As for the experimental part: as §4, §5

SMILES strings stand for the structures.

For orientation: IC50 means the midpoint of a concentration-inhibition curve.

As for `COc1cc(F)ccc1-c1ncnc(Nc2cccc(CS(C)(=N)=O)c2)n1` (centres unmarked) [FR compound, reference compound], the IC50 with DB was determined as 570 nM; with HBL1, 540 nM; with HT, 710 nM; in the data set on OCI-LY-19 it was 480 nM; with OCI-LY-3, 340 nM; with SU-DHL-10, 600 nM. Moreover, the results for the IC50 in the data set with SU-DHL-4, with SU-DHL-6 and in the data set with SU-DHL-8 were 170 nM, 360 nM and 610 nM, respectively.
Take `COc1cc(F)ccc1-c1cc(Nc2cc(CS(C)(=N)=O)ccn2)ncc1F` (single isomer, unassigned; (+)) [Compound A′, (+)-5-Fluoro-4-(4-fluoro-2-methoxyphenyl)-N-{4-[(S-methylsulfonimidoyl)methyl]pyridin-2-yl}pyridin-2-amine]: the IC50 with DB was found to be 88 nM; with HBL1 it was 196 nM; in the data set with HT, 81 nM; in the data set with OCI-LY-19, 39 nM; in the data set on OCI-LY-3, 83 nM; in the data set with SU-DHL-10 it was 129 nM. For the same compound, the IC50 in the data set with SU-DHL-4 worked out at 90 nM; with SU-DHL-5, 105 nM; in the data set with SU-DHL-6, 37 nM; with SU-DHL-8, 93 nM; in the data set with TMD8, 100 nM. Further, the “T/C by area (Treatment to Control ratio, mean tumor area)” value in data set [1] came to 0.29; in data set [2], 0.02. For the same compound, the “T/C by weight (Treatment to Control ratio, mean tumor weight)” value in data set [1] is on record as 0.24. The Fatal toxicities result in data set [3] is reported as “did not occur”. In addition, the “maximum body weight loss” value is −6% in data set [3] and −9% in data set [4].
